Test results as given in ChEMBL document CHEMBL4825668, “Discovery of Novel Pyrimidine-Based Capsid Assembly Modulators as Potent Anti-HBV Agents” (J Med Chem, 2021).
Active and inactive are the calls of the source. No cut-off for these calls is given here.

Columns and labels:
[1] = Tmax in ICR mouse at 10 mg/kg, po measured after 1440 mins by HPLC analysis; format: ADME, organism-based; settings: in vivo
[2] = Half life in ICR mouse at 10 mg/kg, po measured after 1440 mins by HPLC analysis; format: ADME, organism-based; settings: in vivo
[3] = Clearance in ICR mouse at 5 mg/kg, iv measured after 1440 mins by HPLC analysis; format: ADME, organism-based; settings: in vivo
[4] = AUC(infinity) in ICR mouse at 5 mg/kg, iv measured after 1440 mins by HPLC analysis; format: ADME, organism-based; parameters: route intravenous, time 1440 min, dose 5 mg/kg; settings: in vivo
[5] = AUClast in ICR mouse at 10 mg/kg, po measured after 1440 mins by HPLC analysis; format: ADME, organism-based; parameters: route oral, time 1440 min, dose 10 mg/kg; settings: in vivo
[6] = Volume of distribution at steady state in ICR mouse at 5 mg/kg, iv measured after 1440 mins by HPLC analysis; format: ADME, organism-based; settings: in vivo, read-out: Vdss
[7] = Cmax in ICR mouse at 10 mg/kg, po measured after 1440 mins by HPLC analysis; format: ADME, organism-based; parameters: route oral, dose 10 mg/kg, time 1440 min; settings: in vivo
[8] = Cmax in ICR mouse at 5 mg/kg, iv measured after 1440 mins by HPLC analysis; format: ADME, organism-based; parameters: route intravenous, dose 5 mg/kg, time 1440 min; settings: in vivo
[9] = AUC(infinity) in ICR mouse at 10 mg/kg, po measured after 1440 mins by HPLC analysis; format: ADME, organism-based; parameters: route oral, dose 10 mg/kg, time 1440 min; settings: in vivo
[10] = AUClast in ICR mouse at 5 mg/kg, iv measured after 1440 mins by HPLC analysis; format: ADME, organism-based; parameters: route intravenous, dose 5 mg/kg, time 1440 min; settings: in vivo
[11] = Half life in ICR mouse at 5 mg/kg, iv measured after 1440 mins by HPLC analysis; format: ADME, organism-based; settings: in vivo
[12] = Oral bioavailability in ICR mouse at 10 mg/kg measured after 1440 mins by HPLC analysis; format: ADME, organism-based; settings: in vivo
Hepatitis B virus [13] = assay: Antiviral activity against Human hepatitis B virus infected in humanized liver uPA SCID mouse model assessed as change in serum HBsAg at 40 mg/kg, po daily measured every week by ELISA; format: functional, organism-based
Huh-7 [14] = assay: Inhibition of HBV recombinant Cp149 expressed in Huh-7 cells assessed as inhibition of secretion of particles containing viral DNA at 1 uM incubated for 1 hr by immunoblot analysis; format: cell-based; settings: Hepatitis B virus
Hepatitis B virus [15] = assay: Antiviral activity against Human hepatitis B virus infected in humanized liver uPA SCID mouse model assessed as change in serum HBeAg at 40 mg/kg, po daily measured every week by ELISA; format: functional, organism-based
Hepatitis B virus [16] = assay: Antiviral activity against Human hepatitis B virus infected in humanized liver uPA SCID mouse model assessed as reduction in HBV core protein at 40 mg/kg, po daily measured after 35 days by immunohistochemical analysis; format: functional, organism-based; settings: time 35.0 day
Hepatitis B virus [17] = assay: Inhibition of HBV recombinant Cp149 expressed in Escherichia coli BL21 (DE3) assessed as inhibition of capsid assembly at 0.1 uM incubated for 1 hr by immune blotting analysis relative to control
Hepatitis B virus [18] = assay: Antiviral activity against Human hepatitis B virus in Huh-7 cells assessed as decrease in intracellular viral DNA accumulation incubated for 36 hrs by qPCR analysis; format: functional, organism-based
Hepatitis B virus [19] = assay: Antiviral activity against Human hepatitis B virus in Huh-7 cells assessed as decrease in viral DNA level incubated for 36 hrs by qPCR analysis; format: functional, organism-based
Hepatitis B virus [20] = assay: Antiviral activity against Human hepatitis B virus in Huh-7 cells assessed as reduction in HBsAg level by ELISA; format: functional, organism-based
Hepatitis B virus [21] = assay: Antiviral activity against Human hepatitis B virus infected in hydrodynamic injection C57BL/6 mouse model assessed as reduction in serum HBsAg up to 120 mg/kg, po daily by ELISA; format: functional, organism-based; settings: dose mg/kg <=120
Hepatitis B virus [22] = assay: Inhibition of HBV recombinant Cp149 expressed in Escherichia coli BL21 (DE3) assessed as inhibition of capsid assembly at 1 uM incubated for 1 hr by immune blotting analysis relative to control
Huh-7 [23] = assay: Inhibition of HBV recombinant Cp149 expressed in Huh-7 cells assessed as assembled HBV core protein fraction at 1 uM incubated for 1 hr by sucrose gradient analysis; format: cell-based; settings: Hepatitis B virus
Hepatitis B virus [24] = assay: Antiviral activity against Human hepatitis B virus infected in humanized liver uPA SCID mouse model assessed as decrease in serum viral DNA at 40 mg/kg, po daily measured every week by qPCR analysis; format: functional, organism-based
Hepatitis B virus [25] = assay: Antiviral activity against Human hepatitis B virus infected in hydrodynamic injection C57BL/6 mouse model assessed as reduction in viral DNA in serum up to 120 mg/kg, po daily measured after 5 days by qPCR analysis; format: functional, organism-based; settings: dose mg/kg <=120, time 5.0 day
[26] = Toxicity in BALB/c mouse assessed as changes in urine up to 400 mg/kg, po for 2 weeks; format: organism-based; settings: in vivo, 336 h
[27] = Metabolic stability in mouse liver microsomes assessed as compound remaining at […] incubated for 30 mins by LC/MS/MS analysis; format: ADME, Microsome; settings: read-out: Stabilty
[28] = Mutagenicity in Salmonella typhimurium in presence of S9 fraction by Ames test; format: toxicity, subcellular; settings: salmonella enterica subsp. enterica serovar typhimurium
[29] = Permeability of the compound at pH 7.4 by PAMPA; format: ADME
CYP2C9 = CYP2C9 (Homo sapiens, UniProt P11712); assay: Inhibition of human recombinant CYP2C9 using sulfaphenazole […] at 10 uM by fluorometric assay; format: ADME
[30] = Toxicity in BALB/c mouse assessed as changes in blood up to 400 mg/kg, po for 2 weeks; format: organism-based; settings: in vivo, 336 h
CYP1A2 = target: T1, CYP1A2 (Homo sapiens, UniProt P05177); assay: Inhibition of human recombinant CYP1A2 using alpha-naphthoflavone […] at 10 uM by fluorometric assay; format: ADME
T1 sequence (P05177 whole entry): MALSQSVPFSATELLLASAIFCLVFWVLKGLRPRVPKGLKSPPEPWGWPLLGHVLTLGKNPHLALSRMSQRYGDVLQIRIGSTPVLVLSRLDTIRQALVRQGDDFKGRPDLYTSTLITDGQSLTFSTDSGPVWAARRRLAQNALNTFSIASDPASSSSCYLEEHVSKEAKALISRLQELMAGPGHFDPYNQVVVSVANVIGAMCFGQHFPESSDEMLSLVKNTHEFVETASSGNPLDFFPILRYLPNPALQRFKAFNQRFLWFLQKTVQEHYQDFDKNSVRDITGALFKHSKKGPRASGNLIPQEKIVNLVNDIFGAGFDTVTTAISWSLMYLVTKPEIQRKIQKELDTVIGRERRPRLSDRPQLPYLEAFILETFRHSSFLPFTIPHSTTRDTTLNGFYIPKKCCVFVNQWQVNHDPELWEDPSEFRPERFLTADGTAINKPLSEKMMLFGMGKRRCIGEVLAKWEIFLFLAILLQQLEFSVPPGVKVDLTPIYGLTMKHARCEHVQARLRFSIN

CYP3A4 = CYP3A4 (Homo sapiens, UniProt P08684); assay: Inhibition of human recombinant CYP3A4 using ketoconazole […] at 10 uM by fluorometric assay; format: ADME
[31] = Metabolic stability in rat liver microsomes assessed as compound remaining at […] incubated for 30 mins by LC/MS/MS analysis; format: ADME, Microsome; settings: read-out: Stabilty
CYP2C19 = CYP2C19 (Homo sapiens, UniProt P33261); assay: Inhibition of human recombinant CYP2C19 using amitriptyline […] at 10 uM by fluorometric assay; format: ADME
Hepatitis B virus [32] = assay: Antiviral activity against Human hepatitis B virus in Huh-7 cells assessed as reduction in intracellular viral DNA level incubated for 36 hrs by qPCR analysis; format: functional, organism-based; settings: Huh-7, 36 h
[33] = target: Voltage-gated inwardly rectifying potassium channel KCNH2 (Homo sapiens, UniProt Q12809); assay: Inhibition of human ERG expressed in HEK cells at -80 mV holding potential by patch clamp assay relative to control; format: cell-based
[34] = Metabolic stability in human liver microsomes assessed as compound remaining at […] incubated for 30 mins by LC/MS/MS analysis; format: ADME, Microsome; settings: read-out: Stabilty
hERG (KCNH2) = hERG (KCNH2) (Homo sapiens, UniProt Q12809); assay: Inhibition of human ERG at 40 uM incubated for 2 to 3 hrs by ligand binding assay
CYP2D6 = CYP2D6 (Homo sapiens, UniProt P10635); assay: Inhibition of human recombinant CYP2D6 using quinidine […] at 10 uM by fluorometric assay; format: ADME
[35] = AUC(infinity) in ICR mouse at 10 mg/kg, iv measured after 1440 mins by HPLC analysis; format: ADME, organism-based; parameters: route intravenous, time 1440 min, dose 10 mg/kg; settings: in vivo
[36] = AUClast in ICR mouse at 10 mg/kg, iv measured after 1440 mins by HPLC analysis; format: ADME, organism-based; parameters: route intravenous, dose 10 mg/kg, time 1440 min; settings: in vivo
[37] = Clearance in ICR mouse at 10 mg/kg, iv measured after 1440 mins by HPLC analysis; format: ADME, organism-based; settings: in vivo
[38] = Volume of distribution at steady state in ICR mouse at 10 mg/kg, iv measured after 1440 mins by HPLC analysis; format: ADME, organism-based; settings: in vivo, read-out: Vdss
[39] = Half life in ICR mouse at 10 mg/kg, iv measured after 1440 mins by HPLC analysis; format: ADME, organism-based; settings: in vivo

CYP2C9, sequence (P11712 whole entry): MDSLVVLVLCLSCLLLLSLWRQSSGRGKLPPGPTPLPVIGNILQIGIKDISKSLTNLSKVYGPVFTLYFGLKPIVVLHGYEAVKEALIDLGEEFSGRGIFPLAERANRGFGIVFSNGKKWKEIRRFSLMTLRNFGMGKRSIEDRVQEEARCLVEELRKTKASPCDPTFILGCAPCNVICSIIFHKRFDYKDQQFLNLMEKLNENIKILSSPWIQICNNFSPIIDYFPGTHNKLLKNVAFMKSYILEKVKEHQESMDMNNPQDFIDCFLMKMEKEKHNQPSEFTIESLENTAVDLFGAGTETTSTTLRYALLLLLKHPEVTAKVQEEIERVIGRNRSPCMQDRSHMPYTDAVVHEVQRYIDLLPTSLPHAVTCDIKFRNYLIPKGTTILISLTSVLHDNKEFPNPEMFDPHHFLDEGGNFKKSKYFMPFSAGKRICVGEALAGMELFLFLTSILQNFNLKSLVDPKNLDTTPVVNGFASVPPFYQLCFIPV
Voltage-gated inwardly rectifying potassium channel KCNH2, sequence (Q12809 whole entry): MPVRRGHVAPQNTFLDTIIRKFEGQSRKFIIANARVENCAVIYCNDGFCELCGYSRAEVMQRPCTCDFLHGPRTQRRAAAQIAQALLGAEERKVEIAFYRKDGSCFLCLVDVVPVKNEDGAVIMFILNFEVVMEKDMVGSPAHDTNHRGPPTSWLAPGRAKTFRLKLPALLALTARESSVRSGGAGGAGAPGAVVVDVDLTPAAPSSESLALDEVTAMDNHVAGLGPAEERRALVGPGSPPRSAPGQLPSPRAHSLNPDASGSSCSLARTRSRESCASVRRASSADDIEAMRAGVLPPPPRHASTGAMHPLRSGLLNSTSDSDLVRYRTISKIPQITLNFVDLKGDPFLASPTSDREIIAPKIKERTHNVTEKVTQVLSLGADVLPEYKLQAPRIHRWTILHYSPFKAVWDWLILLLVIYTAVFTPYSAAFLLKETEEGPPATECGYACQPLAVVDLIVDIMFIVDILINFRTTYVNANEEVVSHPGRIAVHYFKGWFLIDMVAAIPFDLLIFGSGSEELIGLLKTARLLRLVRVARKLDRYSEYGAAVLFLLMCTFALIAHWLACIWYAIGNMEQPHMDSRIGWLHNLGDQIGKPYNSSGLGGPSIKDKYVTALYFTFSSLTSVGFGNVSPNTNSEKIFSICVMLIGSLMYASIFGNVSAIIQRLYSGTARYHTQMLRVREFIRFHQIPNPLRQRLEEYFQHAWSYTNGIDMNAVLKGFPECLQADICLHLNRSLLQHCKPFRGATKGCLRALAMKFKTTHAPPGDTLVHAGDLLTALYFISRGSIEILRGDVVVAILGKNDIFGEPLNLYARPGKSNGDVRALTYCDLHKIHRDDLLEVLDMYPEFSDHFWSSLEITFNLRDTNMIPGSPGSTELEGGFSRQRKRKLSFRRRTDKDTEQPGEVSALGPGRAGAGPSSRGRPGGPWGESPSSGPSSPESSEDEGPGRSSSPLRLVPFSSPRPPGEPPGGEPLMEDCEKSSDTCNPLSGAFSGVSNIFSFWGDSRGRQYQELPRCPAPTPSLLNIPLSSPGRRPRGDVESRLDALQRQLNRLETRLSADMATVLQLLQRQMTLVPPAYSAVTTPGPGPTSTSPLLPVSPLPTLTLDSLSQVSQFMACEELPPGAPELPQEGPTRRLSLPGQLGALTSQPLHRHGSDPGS
hERG (KCNH2), sequence (Q12809 whole entry): as above
CYP3A4, sequence (P08684 whole entry): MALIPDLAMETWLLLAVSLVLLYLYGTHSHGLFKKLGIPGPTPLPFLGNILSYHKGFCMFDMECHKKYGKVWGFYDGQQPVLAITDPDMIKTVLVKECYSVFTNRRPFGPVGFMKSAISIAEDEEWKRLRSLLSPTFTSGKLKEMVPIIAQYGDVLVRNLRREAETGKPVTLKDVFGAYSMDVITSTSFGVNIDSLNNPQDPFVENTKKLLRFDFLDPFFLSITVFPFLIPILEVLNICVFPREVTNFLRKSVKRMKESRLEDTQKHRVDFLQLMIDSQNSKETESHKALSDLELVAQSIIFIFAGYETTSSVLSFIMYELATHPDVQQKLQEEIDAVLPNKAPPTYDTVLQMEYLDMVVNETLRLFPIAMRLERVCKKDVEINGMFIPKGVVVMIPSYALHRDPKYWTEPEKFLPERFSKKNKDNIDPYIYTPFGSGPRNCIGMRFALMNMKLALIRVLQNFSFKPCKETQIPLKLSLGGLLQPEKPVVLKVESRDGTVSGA
CYP2D6, sequence (P10635 whole entry): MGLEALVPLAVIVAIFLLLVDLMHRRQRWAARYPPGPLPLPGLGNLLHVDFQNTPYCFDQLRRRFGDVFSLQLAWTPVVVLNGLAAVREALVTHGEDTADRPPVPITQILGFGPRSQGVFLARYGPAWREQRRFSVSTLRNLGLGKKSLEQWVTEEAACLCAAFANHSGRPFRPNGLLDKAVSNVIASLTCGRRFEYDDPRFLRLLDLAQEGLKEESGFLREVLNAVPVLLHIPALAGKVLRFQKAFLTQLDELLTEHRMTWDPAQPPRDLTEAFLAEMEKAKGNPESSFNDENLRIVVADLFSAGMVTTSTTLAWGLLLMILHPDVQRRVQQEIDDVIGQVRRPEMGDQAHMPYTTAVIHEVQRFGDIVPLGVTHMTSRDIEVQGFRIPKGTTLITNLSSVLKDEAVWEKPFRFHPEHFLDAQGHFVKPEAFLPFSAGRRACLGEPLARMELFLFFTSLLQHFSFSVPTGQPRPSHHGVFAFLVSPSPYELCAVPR
CYP2C19, sequence (P33261 whole entry): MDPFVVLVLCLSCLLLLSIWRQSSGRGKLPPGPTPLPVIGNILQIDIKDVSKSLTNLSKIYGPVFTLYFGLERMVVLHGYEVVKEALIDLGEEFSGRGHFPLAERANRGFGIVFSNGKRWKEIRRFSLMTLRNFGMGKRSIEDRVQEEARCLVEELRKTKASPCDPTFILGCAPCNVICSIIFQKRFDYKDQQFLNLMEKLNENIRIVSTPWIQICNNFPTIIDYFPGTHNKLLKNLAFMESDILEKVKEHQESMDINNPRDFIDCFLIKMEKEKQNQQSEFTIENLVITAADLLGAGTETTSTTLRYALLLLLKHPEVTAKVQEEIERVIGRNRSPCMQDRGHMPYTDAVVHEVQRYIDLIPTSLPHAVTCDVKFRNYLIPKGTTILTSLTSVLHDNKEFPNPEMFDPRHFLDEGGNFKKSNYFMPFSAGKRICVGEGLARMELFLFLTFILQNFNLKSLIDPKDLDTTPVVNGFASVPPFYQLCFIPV

Compound: CS(=O)(=O)c1nc(Nc2ccc(F)c(Cl)c2)cc(NC2CCC(N)CC2)n1.Cl (stereo unspecified)
- Tmax [1]: 1.8 h
- half-life [2]: 6.3 h
- clearance [3]: 36.7 mL/min/kg
- AUC(0-inf) [4]: 2410 ng·h/mL
- AUC(0-t) at 24 h [5]: 203 ng·h/mL
- Vd [6]: 5.4 L/kg
- Cmax [7]: 28.3 ng/mL
- Cmax [8]: 9780 ng/mL
- AUC(0-inf) [9]: 270 ng·h/mL
- AUC(0-t) at 24 h [10]: 2110 ng·h/mL
- half-life [11]: 4.8 h
- bioavailability [12]: 4.8%

Compound: CS(=O)(=O)c1nc(Nc2ccc(F)c(Cl)c2)cc(NC2CCC(N)CC2)n1 (stereo unspecified) [listing 1 of 2 here]
- Activity (Hepatitis B virus [13]): Active
- inhibition (Huh-7 [14]): Active
- Activity (Hepatitis B virus [15]): Active
- Activity (Hepatitis B virus [16]): Active
- inhibition (Hepatitis B virus [17]): 52%
- Activity (Hepatitis B virus [18]): Active
- Activity (Hepatitis B virus [19]): Active
- Activity (Hepatitis B virus [20]): inactive
- Activity (Hepatitis B virus [21]): Active
- inhibition (Hepatitis B virus [22]): 99%
- inhibition (Huh-7 [23]): Active
- Activity (Hepatitis B virus [24]): Active
- Activity (Hepatitis B virus [25]): Dose-Dependent Effect

Compound: CS(=O)(=O)c1nc(Nc2ccc(F)c(Cl)c2)cc(NC2CCC(N)CC2)n1 (stereo unspecified) [listing 2 of 2 here]
- Activity [26]: Non-Toxic
- remaining at 0.5 h [27]: 79.6%
- Activity [28]: Non-Toxic
- log(permeability) [29]: -5.15
- inhibition at 10 µM (CYP2C9): 51.8%
- Activity [30]: Non-Toxic
- inhibition at 10 µM (CYP1A2): 37.2%
- inhibition at 10 µM (CYP3A4): 44%
- remaining at 0.5 h [31]: 82%
- inhibition at 10 µM (CYP2C19): 71.4%
- IC50 (Hepatitis B virus [32]): 0.181 µM
- IC50 [33]: 19.8 µM
- remaining at 0.5 h [34]: 81.7%
- inhibition at 40 µM (hERG (KCNH2)): 76.6%
- inhibition at 10 µM (CYP2D6): 21.7%

Compound: CS(=O)(=O)c1nc(Nc2ccc(F)c(Cl)c2)cc(N2CCNCC2)n1.Cl
- AUC(0-inf) [35]: 2330 ng·h/mL
- AUC(0-t) at 24 h [36]: 2370 ng·h/mL
- Tmax [1]: 0.5 h
- half-life [2]: 7.8 h
- clearance [37]: 70.8 mL/min/kg
- Vd [38]: 10.9 L/kg
- AUC(0-t) at 24 h [5]: 131 ng·h/mL
- half-life [39]: 3.3 h
- Cmax [7]: 25 ng/mL
- AUC(0-inf) [9]: 107 ng·h/mL
- bioavailability [12]: 4.6%
